Measurements published in article PMC10533412, “Phosphoantigens glue butyrophilin 3A1 and 2A1 to activate Vγ9Vδ2 T cells” (Nature, 2023).
Like-named read-outs stand apart in the source and are kept apart here.

Columns and labels:
MIA PaCa-2 cells [1] = experiment: Cell killing assay: cytotoxicity of Vγ9Vδ2 T cells towards pAg- or zoledronate-treated MIA PaCa-2 cells (luciferase); assay type: cell-based, human; conditions: for Bottom (best-fit value) / Top (best-fit value) / Span (best-fit value): Fig. 1b; for Bottom (best-fit value) / Top (best-fit value): log(agonist) vs. response (three parameters); for EC50: Homo sapiens
Experimental: MIA PaCa-2 cells were infected with lentivirus bearing luciferase transgene. Luciferase-positive cells were plated at 5.0 × 10^3 cells per well in 384-well plates 1 day before transfection. All plasmids were transfected into BTN2A^−/− MIA PaCa-2 (BTN2A1/BTN2A2 KO) cells using Lipofectamine 2000 reagent. […] Stable-lite luciferase (Vazyme) was added to each well and the luciferase signal was immediately measured by using the PerkinElmer EnVision microplate reader.
Percentage of lysis was calculated using the following equation: percentage of specific lysis = (maximum luciferase − experimental luciferase)/maximum luciferase × 100.

[2] = target: T1, BTN2A1 B30.2–BTN3A1 B30.2 (Homo sapiens, UniProt O00481+Q7KYR7, R449A/R469A); experiment: ITC: BTN2A1 B30.2 (and mutants) binding to BTN3A1 B30.2 in the presence of pAg
T1 construct: The BTN3A1 B30.2 domain was expressed and purified as described previously; 6xHis; made in house; host or cells: Escherichia coli BL21 (DE3) for BTN2A1 B30.2
T1 sequence (O00481 322-513): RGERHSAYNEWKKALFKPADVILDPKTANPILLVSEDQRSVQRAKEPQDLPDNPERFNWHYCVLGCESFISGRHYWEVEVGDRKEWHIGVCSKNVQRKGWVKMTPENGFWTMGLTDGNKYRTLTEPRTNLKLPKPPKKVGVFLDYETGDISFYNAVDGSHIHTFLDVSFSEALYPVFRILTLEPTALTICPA
T1 sequence (Q7KYR7 316-527 R449A/R469A): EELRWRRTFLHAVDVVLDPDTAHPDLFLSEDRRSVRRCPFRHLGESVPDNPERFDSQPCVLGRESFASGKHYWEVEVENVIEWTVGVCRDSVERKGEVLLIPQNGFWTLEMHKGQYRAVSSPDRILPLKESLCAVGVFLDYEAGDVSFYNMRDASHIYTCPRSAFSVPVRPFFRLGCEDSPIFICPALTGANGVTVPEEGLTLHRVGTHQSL
Experimental: ITC binding fits were calculated using MicroCal Analysis software.
For the experiments testing the binding of BTN2A1/BTN2A2 B30.2 domain (including their mutants) to the BTN3A1 B30.2 domain with or without HMBPP, BTN3A1 B30.2 (100 µM) and HMBPP (300 µM) were incubated in the buffer at a 1:3 ratio and loaded into the sample cell, and the injection syringe was filled with the buffer containing 1 mM BTN2A1/BTN2A2 B30.2 (including their mutants).

VpBTN3 BFI = VpBTN3 BFI (Vicugna pacos, UniProt A0A345DF50); experiment: ITC: pAg binding to VpBTN3 BFI; set-up: species or system alpaca (Vicugna pacos); conditions: ITC; read-out: KD, pAg binding to VpBTN3 intracellular domain (BFI)
Chain of VpBTN3 BFI (A0A345DF50 entry or part of it): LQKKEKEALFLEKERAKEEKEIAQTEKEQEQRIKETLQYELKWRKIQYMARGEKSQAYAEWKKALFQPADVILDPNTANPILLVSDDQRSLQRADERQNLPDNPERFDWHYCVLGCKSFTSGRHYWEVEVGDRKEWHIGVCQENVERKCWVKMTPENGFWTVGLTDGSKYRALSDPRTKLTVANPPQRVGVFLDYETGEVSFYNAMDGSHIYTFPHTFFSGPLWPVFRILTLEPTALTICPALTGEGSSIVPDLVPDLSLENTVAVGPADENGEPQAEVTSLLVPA
Experimental: ITC experiments were performed using the MicroCal PEAQ-ITC instrument (GE Healthcare) at 25 °C. We used an initial injection of 0.4 μl followed by 19 injections (2 µl each) at 150 s time intervals. ITC binding fits were calculated using MicroCal Analysis software. The samples were prepared using a buffer (20 mM HEPES pH 7.5, 150 mM NaCl).
ITC experiments of HMBPP, DMAPP or IPP binding to the VpBTN3 BFI (or the preconditioned VpBTN3 BFI and VpBTN2 BFI complex) and VpBTN2 BFI (or VpBTN1 BFI) binding to VpBTN3 BFI in the presence of HMBPP, DMAPP or IPP were performed according to the same procedures as for the BTN3A1 B30.2 and BTN2A1 B30.2.

MIA PaCa-2 cells [3] = experiment: AFM-SCFS binding force between a Vγ9Vδ2 T cell and a MIA PaCa-2 cell; assay type: cell-based, human; set-up: binding force, Mean, Fig. 6b / binding force, Median, Fig. 6b: unit not given here
Experimental: The AFM-SCFS analysis procedure was performed using the JPK CellHesion unit as previously described, and closely followed our previously reported protocol for APCs[4]. […] The glass disks were quickly transferred to an AFM adapter with immediate addition of 1 ml of fresh medium (DMEM: 10% FBS and 1% penicillin–streptomycin). […] The raw data were normalized to the background readings. Blank readings for each set of affinity measurements (Vγ9Vδ2 T cells touching the glass surface) were collected immediately before each assay to perform background subtraction. All data were analysed using the JPK image processing software. […] The following steps were the same as described above.

Vγ9Vδ2 T cells = conditions: cited from earlier work
[4] = 2A1-KO cells + HMBPP, 31 values
[5] = 2A1ΔB30.2 cells + HMBPP, 39 values

## C/C(=C\COP(=O)(O)OP(=O)(O)O)CO [Compound 1, (E)-4-hydroxy-3-methylbut-2-en-1-yl diphosphate]
MIA PaCa-2 cells [1]; 2A1 KO cells
  Bottom (best-fit value): 2.135
  Top (best-fit value): 50.59
MIA PaCa-2 cells [1]; 2A1 KO cells, three-parameter fit
  Span (best-fit value): 48.45
MIA PaCa-2 cells [1]; 2A1 WT cells
  Bottom (best-fit value): 19.47
  Top (best-fit value): 76.92
MIA PaCa-2 cells [1]; 2A1 WT cells, three-parameter fit
  Span (best-fit value): 57.45
MIA PaCa-2 cells [1]; MIA PaCa-2, BTN2A1 WT MIA PaCa-2 cells, read-out: EC50 for HMBPP-mediated MIA PaCa-2 cell killing
  EC50: 6.5e-09 M
MIA PaCa-2 cells [1]; MIA PaCa-2, BTN2A1−/− (KO) MIA PaCa-2 cells, read-out: EC50 for HMBPP-mediated MIA PaCa-2 cell killing
  EC50: 3.6e-05 M
MIA PaCa-2 cells [1]; MIA PaCa-2, Fig. 1b, 2A1 KO cells, log(Concentration)/M, three-parameter fit, read-out: LogEC50 (converted)
  EC50: 3.6e-05 M
MIA PaCa-2 cells [1]; MIA PaCa-2, Fig. 1b, 2A1 KO cells, three-parameter fit, read-out: EC50
  EC50: 3.6e-05 M
MIA PaCa-2 cells [1]; MIA PaCa-2, Fig. 1b, 2A1 WT cells, log(Concentration)/M, three-parameter fit, read-out: LogEC50 (converted)
  EC50: 6.5e-09 M
MIA PaCa-2 cells [1]; MIA PaCa-2, Fig. 1b, 2A1 WT cells, three-parameter fit, read-out: EC50
  EC50: 6.5e-09 M
MIA PaCa-2 cells [1]; MIA PaCa-2, Supplementary Table 4, read-out: EC50 (M) for MIA PaCa-2 cell lysis mediated by HMBPP analogs and Vγ9Vδ2 T cells
  EC50: 3.87e-09 M
[2]
  Binding of 2A1 B30.2 R449A/R469A to 3A1 B30.2 in the presence of HMBPP: does not bind
VpBTN3 BFI
  Kd: 1370 nM
MIA PaCa-2 cells [3]; [4]
  binding force, Mean, Fig. 6b: 767.7
  binding force, Median, Fig. 6b: 745
MIA PaCa-2 cells [3]; 2A1 cells + HMBPP, 31 values
  binding force, Mean, Fig. 6b: 1509
  binding force, Median, Fig. 6b: 1510
MIA PaCa-2 cells [3]; [5]
  binding force, Mean, Fig. 6b: 594.3
  binding force, Median, Fig. 6b: 585
MIA PaCa-2 cells [3]; after HMBPP treatment (1 µM, 4 h), untreated 558 pN
  Binding force between a Vγ9Vδ2 T cell and a MIA PaCa-2 cell: 1,554 pN
Vγ9Vδ2 T cells
  EC50 for Vγ9Vδ2 T cell activation: picomolar range
